Measured values: ChEMBL document CHEMBL5120836, “Discovery of novel 7,8-dihydropteridine-6(5H)-one-based DNA-PK inhibitors as potential anticancer agents via scaffold hopping strategy” (Eur J Med Chem, 2022)
In brackets after ≈: the same amount, converted by molar mass.

What was measured:
[1] = test system: HCT-116; experiment: Synergistic antiproliferative activity against human HCT-116 cells assessed as combination index at 1 uM in presence of 100 nM doxorubicin by MTT assay; type: functional
[2] = test system: HepG2; experiment: Synergistic antiproliferative activity against Doxorubicin-resistant human HepG2 cells assessed as combination index at 200 uM in presence of 0.1 uM doxorubicin by MTT assay; type: functional
[3] = Toxicity in BALB/c nude mouse xenografted with human HL-60 cells assessed as serum lymphocytes content at 100 mg/kg, po qd for 16 days (reference value: 75.3%); type: organism-based; details: in vivo, 384 h, time 16 day
[4] = test system: HL-60; experiment: Synergistic antiproliferative activity against human HL-60 cells assessed as combination index at 0.1 uM in presence of 0.1 uM doxorubicin by MTT assay; type: functional
[5] = Cmax in Sprague-Dawley rat at 5 mg/kg, po; type: ADME, organism-based; parameters: dose 5 mg/kg, route po; details: in vivo
[6] = test system: MCF7; experiment: Synergistic antiproliferative activity against human MCF7 cells assessed as combination index at 100 uM in presence of 0.1 uM doxorubicin by MTT assay; type: functional
[7] = test system: HL-60; experiment: Synergistic antiproliferative activity against human HL-60 cells assessed as combination index at 6.25 uM in presence of 0.1 uM doxorubicin by MTT assay; type: functional
[8] = test system: HL-60; experiment: Synergistic antiproliferative activity against human HL-60 cells assessed as inhibition of cell growth in presence of 100 nM doxorubicin by MTT assay; type: functional, cell-based
[9] = test system: MDA-MB-231; experiment: Synergistic antiproliferative activity against human MDA-MB-231 cells assessed as combination index at 0.1 uM in presence of 0.1 uM doxorubicin by MTT assay; type: functional
[10] = Toxicity in BALB/c nude mouse xenografted with human HL-60 cells assessed as RDW-SD level at 100 mg/kg, po qd for 16 days (reference value: 34 fL); type: organism-based; details: in vivo, 384 h, time 16 day
[11] = test system: HepG2; experiment: Synergistic antiproliferative activity against Doxorubicin-resistant human HepG2 cells assessed as combination index at 1 uM in presence of 0.1 uM doxorubicin by MTT assay; type: functional
[12] = target: Phosphatidylinositol 4,5-bisphosphate 3-kinase catalytic subunit gamma isoform (Homo sapiens, UniProt P48736); experiment: Inhibition of human PI3Kgamma by ADP-Glo assay; type: toxicity
Chain of Phosphatidylinositol 4,5-bisphosphate 3-kinase catalytic subunit gamma isoform (P48736 whole entry, canonical isoform): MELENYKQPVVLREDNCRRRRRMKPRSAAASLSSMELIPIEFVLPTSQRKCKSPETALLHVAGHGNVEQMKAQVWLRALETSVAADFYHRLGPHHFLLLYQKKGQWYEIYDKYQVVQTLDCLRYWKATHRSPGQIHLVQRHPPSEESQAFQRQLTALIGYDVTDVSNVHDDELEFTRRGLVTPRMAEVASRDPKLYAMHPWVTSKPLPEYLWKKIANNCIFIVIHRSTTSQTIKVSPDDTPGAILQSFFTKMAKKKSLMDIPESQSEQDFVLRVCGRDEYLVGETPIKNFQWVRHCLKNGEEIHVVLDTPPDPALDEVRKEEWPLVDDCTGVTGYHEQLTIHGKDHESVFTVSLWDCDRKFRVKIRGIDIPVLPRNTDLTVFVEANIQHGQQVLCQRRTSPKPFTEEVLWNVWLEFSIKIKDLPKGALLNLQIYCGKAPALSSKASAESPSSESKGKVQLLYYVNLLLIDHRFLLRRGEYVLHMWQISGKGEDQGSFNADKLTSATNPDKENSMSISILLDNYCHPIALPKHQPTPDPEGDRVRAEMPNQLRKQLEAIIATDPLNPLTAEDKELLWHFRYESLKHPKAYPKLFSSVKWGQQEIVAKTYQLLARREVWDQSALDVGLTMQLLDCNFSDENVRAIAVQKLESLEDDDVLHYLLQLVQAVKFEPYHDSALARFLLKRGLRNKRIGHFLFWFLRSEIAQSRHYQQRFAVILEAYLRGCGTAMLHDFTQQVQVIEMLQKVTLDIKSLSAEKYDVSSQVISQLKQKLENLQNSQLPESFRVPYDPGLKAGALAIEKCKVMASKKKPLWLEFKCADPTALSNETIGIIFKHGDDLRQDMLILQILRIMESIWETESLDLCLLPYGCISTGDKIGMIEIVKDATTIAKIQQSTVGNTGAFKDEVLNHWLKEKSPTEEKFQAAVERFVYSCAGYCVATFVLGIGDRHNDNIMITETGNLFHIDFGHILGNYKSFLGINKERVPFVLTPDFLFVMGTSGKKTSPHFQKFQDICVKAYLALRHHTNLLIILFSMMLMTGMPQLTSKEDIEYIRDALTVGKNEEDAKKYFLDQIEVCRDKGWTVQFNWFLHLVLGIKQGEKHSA

[13] = Toxicity in BALB/c nude mouse xenografted with human HL-60 cells assessed as MCHC level at 100 mg/kg, po qd for 16 days (reference value: 246 g/L); type: organism-based; details: in vivo, 384 h, time 16 day
[14] = Toxicity in BALB/c nude mouse xenografted with human HL-60 cells assessed as PDW level at 100 mg/kg, po qd for 16 days (reference value: 8.16 fL); type: organism-based; details: in vivo, 384 h, time 16 day
[15] = test system: HepG2; experiment: Synergistic antiproliferative activity against Doxorubicin-resistant human HepG2 cells assessed as combination index at 0.5 uM in presence of 0.1 uM doxorubicin by MTT assay; type: functional
[16] = test system: HCT-116; experiment: Induction of cell cycle arrest in human HCT-116 cells assessed as increase in accumulation of cells at G2/M phase at 1 uM incubated for 24 hrs in presence of 100 nM doxorubicin by PI staining based flow cytometry; type: functional
[17] = Toxicity in BALB/c nude mouse xenografted with human HL-60 cells assessed as MCH level at 100 mg/kg, po qd for 16 days (reference value: 14.1 pg); type: organism-based; details: in vivo, 384 h, time 16 day
[18] = test system: HCT-116; experiment: Induction of apoptosis in human HCT-116 cells assessed as necrotic cells at 1 uM incubated for 24 hrs in presence of 100 nM doxorubicin by AnnexinV-FITC/PI staining based flow cytometry (reference value: 0.031%); type: functional
[19] = test system: HCT-116; experiment: Induction of apoptosis in human HCT-116 cells assessed as necrotic cells at 1 uM incubated for 24 hrs by AnnexinV-FITC/PI staining based flow cytometry (reference value: 0.031%); type: functional
[20] = target: T1, Phosphatidylinositol 4,5-bisphosphate 3-kinase catalytic subunit delta isoform (Homo sapiens, UniProt O00329); experiment: Inhibition of human PI3Kdelta by ADP-Glo assay; type: toxicity
T1 sequence (O00329 whole entry): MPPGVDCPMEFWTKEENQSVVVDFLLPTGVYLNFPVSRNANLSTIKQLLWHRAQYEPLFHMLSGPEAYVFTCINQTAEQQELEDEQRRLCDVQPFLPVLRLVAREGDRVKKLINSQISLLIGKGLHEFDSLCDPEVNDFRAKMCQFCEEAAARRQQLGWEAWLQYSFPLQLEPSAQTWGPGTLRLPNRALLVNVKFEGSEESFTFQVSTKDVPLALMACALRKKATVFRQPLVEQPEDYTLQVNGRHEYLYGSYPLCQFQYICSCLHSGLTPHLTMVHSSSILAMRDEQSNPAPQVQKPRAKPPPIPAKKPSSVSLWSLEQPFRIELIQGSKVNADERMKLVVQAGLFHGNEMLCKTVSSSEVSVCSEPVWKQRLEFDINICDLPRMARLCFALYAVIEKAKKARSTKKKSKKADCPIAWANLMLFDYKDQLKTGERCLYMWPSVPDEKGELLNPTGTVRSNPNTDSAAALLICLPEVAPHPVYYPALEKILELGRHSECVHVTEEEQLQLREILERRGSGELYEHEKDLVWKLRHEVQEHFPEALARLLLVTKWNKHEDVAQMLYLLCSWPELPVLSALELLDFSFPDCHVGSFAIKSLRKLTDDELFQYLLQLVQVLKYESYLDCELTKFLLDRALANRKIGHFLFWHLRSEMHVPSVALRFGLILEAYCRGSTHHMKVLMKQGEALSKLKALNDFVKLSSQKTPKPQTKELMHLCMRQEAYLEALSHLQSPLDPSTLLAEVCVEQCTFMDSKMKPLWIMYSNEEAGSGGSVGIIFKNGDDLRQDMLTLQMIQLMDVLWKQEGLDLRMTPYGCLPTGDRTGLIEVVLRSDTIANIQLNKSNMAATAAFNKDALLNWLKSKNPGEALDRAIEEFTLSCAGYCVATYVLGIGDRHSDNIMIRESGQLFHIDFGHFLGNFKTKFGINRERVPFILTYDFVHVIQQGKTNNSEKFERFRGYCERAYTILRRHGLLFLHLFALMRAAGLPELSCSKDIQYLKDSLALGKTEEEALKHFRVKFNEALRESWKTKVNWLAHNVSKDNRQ

[21] = Toxicity in BALB/c nude mouse xenografted with human HL-60 cells assessed as heart morphological alterations at 100 mg/kg, po qd for 16 days by Hematoxylin and Eosin staining based analysis; type: organism-based; details: in vivo, 384 h, time 16 day
[22] = in vitro; details: human, Caco-2
Description: Efflux ratio of apparent permeability across basolateral to apical side over apical to basolateral side in human Caco-2 cells

[23] = Kinetic solubility of the compound in phosphate-buffered solution at pH 7.4 incubated for 24 hrs by HPLC-MS/MS analysis; type: physicochemical; details: phosphate buffer, read-out: Kinetic_solubility
[24] = Toxicity in BALB/c nude mouse xenografted with human HL-60 cells assessed as MPV level at 100 mg/kg, po qd for 16 days (reference value: 7.55 fL); type: organism-based; details: in vivo, 384 h, time 16 day
[25] = test system: HL-60; experiment: Synergistic antiproliferative activity against human HL-60 cells assessed as combination index at 1 uM in presence of 0.1 uM doxorubicin by MTT assay; type: functional

`Cc1cc2ncnn2cc1Nc1ncc2c(n1)N(C1CCOCC1)CC(=O)N2C` showed a CI [1] of 0.74, a CI [2] of 0.2062 and an Activity [3] of 77.25%. For the same compound, the CI [4] was 0.00121, the Cmax [5] was 810 ng/mL and the CI [6] was 0.2764. The CI [7] was 0.03585, the IC50 [8] was less than 100 nM and the CI [9] was 0.4431. The Activity [10] was 36 fL, the CI [11] was 0.011 and the IC50 [12] was 281 nM. The Activity [13] was 249 g/L, the Activity [14] was 7.4 fL and the CI [15] was 0.01657. For the same compound, the Activity [16] was 57.27%, the Activity [17] was 14.2 pg and the Activity [18] was 0.002%. The Activity [19] was 0.015%, the IC50 [20] was 758 nM and the Activity [21] was “Non-Toxic”. It also gave an efflux ratio [22] of 4.84, a solubility kinetic at 24 h [23] of 80 µg/mL (≈ 203 µM) and an Activity [24] of 6.85 fL. The CI [25] was 0.00616.
